According to article PMC7806715, “Discovery of small molecules targeting the tandem tudor domain of the epigenetic factor UHRF1 using fragment-based ligand discovery” (Scientific Reports, 2021):

What was measured:
UHRF1-TTD = target: T1, UHRF1-TTD (Homo sapiens, UniProt Q96T88); test: Thermal shift assay (TSA) of TTD; format: binding; conditions: compound at 500 μM; untagged TTD, 150 mM NaCl; mean ± S.D., n=3
T1 construct: Using the isolated His6-TTD (aa 123–283) we performed a thermal shift assay; His6 (N, cleaved yes); made in house; host or cells: Rosetta (DE3) E. coli, pMCSG7
T1 sequence (Q96T88 123-283): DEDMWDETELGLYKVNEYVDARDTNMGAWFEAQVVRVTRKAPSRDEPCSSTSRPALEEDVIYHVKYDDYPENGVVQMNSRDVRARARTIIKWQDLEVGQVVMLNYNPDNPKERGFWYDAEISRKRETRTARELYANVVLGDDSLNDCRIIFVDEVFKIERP
Method: We used three different assays in parallel to screen a ~ 2300-fragment library to identify hits that bind to TTD or inhibit its activities. The first screening method was a direct binding assay, which generally serves as the basis for most fragment screening. Using the isolated His6-TTD (aa 123–283) we performed a thermal shift assay (TSA) to determine the change in melting temperature upon fragment binding. The change in protein melting temperature (ΔTm) caused by each fragment was calculated by comparison to the DMSO controls on the same plate.
The fragment screen was carried out on LightCycler 480 Multiwell Plates 384 (Roche). The TSA mix contains 0.15 mg/ml of His6-TTD, 10 × of SYPRO Orange dye (ThermoFisher) in the TSA buffer (50 mM sodium phosphate, pH = 7, 300 mM NaCl). During the screen, 5 µl of TSA mix was dispensed into each well, and 100 nl of chemical fragments stock (10 mM in DMSO) was added to each well by pintool using Tecan Freedom Evo liquid handler to make the final compound concentration 200 µM. After 1 h of incubation at room temperature, the increase of fluorescence at 580 nm (excitation 465 nm) during the 20–90 degree melting (0.04 °C/s) was measured by LightCycler 480 Instrument II (Roche). For the fragment screen, on seven of the library plates there were 32-wells of DMSO control, while there were 8-wells of DMSO control in the last plate. […] Using un-tagged TTD for TSA provide closer resemblance to the native state of TTD. The lower salt concentration (150 mM NaCl) also allowed better comparison across three different assays during the dose-dependent SAR studies as both AlphaScreen and TR-FRET assay also use buffers containing 150 mM NaCl.

[1] = target: T2, His6-UHRF1-full length vs. H3K9me3 peptide (Homo sapiens, UniProt Q96T88); test: TR-FRET assay: His6-UHRF1-FL binding to H3K9me3 peptide; format: biochemical; conditions: dose-response, side by side with His6-TTD
T2 construct: made in house; host or cells: Rosetta (DE3) E. coli, pMCSG7
T2 sequence (Q96T88 1-793): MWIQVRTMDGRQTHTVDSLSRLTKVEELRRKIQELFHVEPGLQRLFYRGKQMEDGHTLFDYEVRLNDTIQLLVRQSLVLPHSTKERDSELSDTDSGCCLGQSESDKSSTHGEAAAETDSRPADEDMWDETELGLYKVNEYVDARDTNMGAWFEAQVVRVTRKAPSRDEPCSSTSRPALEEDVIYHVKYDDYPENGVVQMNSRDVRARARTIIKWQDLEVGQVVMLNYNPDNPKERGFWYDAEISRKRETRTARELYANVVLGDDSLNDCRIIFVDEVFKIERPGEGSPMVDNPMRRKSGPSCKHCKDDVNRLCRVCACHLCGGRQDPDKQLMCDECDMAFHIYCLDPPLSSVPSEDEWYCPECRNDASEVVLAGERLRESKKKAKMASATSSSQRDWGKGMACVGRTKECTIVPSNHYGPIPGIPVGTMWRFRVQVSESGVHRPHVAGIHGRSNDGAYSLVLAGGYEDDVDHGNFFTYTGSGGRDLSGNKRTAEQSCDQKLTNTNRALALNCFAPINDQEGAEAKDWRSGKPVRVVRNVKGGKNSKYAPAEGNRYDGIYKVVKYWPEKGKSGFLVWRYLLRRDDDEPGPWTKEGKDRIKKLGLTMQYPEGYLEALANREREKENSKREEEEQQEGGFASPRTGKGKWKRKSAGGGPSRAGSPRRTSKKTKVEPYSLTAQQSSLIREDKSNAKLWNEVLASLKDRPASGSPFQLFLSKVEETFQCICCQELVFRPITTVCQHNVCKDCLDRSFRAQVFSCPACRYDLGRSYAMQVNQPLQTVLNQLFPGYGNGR
Method: The fragment screen was carried out on low volume 384-well white plates (Corning 4512) and the assay was performed at room temperature. The TR-FRET reagent mix contained 200 nM of biotinylated-H3K9me3 peptide (Anaspec), 250 nM of His6-TTD, 25 nM of streptavidin-d2 (CisBio), and 1 × anti-6His-Tb cryptate Gold (Cisbio) in TR-FRET buffer (50 mM sodium phosphate, pH 7, 150 mM NaCl, 1 mM DTT, and 0.1% Triton-X-100). During the screen, 5 μl of TR-FRET reagent mix was dispensed into each well, and 100 nl of chemical fragments stock (10 mM in DMSO) was added to each well by pintool using Tecan Freedom Evo liquid handler to make the final compound concentration 196 μM. After 1 h of incubation, the fluorescent signals at 665 nm and 620 nm of each plate were measured by the Tecan Infinite M1000 plate reader (excitation 340 nm, 60 μs lag time, and 500 μs integration time) and the TR-FRET signal was calculated by the ratio of 665 nm/620 nm fluorescent signal. For the fragment screen, on seven of the library plates there were 32-wells of DMSO control, while there were 8-wells of DMSO control in the last plate. The TR-FRET assays for the interactions between His6-TTD-PHD and His6-UHRF1-FL binding to biotinylated-H3K9me3 (1-20) peptide were similar to the assay for His6-TTD. […]

[2] = target: His-USP7-UBL1/2 (control protein) (Homo sapiens, UniProt Q93009); test: Intrinsic tryptophan fluorescence of control protein; format: binding; conditions: 3.2 µM protein
Chain of His-USP7-UBL1/2 (control protein) (Q93009 560-776 limits assumed): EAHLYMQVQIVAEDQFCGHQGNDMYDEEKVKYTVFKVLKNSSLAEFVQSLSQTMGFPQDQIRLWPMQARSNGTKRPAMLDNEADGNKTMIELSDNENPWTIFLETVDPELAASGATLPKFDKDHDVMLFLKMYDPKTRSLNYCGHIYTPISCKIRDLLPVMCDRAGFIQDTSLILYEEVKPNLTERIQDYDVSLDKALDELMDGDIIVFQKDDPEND

Cc1ccnc(C)c1 [2,4-lutidine]
ΔTm at 500 µM (UHRF1-TTD): 2.04 ± 0.01 °C
inhibition of His6-UHRF1-FL interaction with H3K9me3 peptide (in words) [1]: only weakly inhibits
effect on tryptophan fluorescence of control protein (in words) [2]: did not inhibit
